From PubChem BioAssay (NCI)
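Method: 48-hour compound exposure of cells in 96-well plates, five concentrations, linear interpolation of endpoints. GI50 = concentration required for 50% inhibition of growth. TGI marks complete inhibition of growth.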

Legend:
Assay in all cases: NCI-60 cell line screen, 48 h
SF-268 CNS = system: SF-268 CNS
OVCAR-8 ovarian = system: OVCAR-8 ovarian
SK-MEL-28 melanoma = system: SK-MEL-28 melanoma
NCI-H23 lung = system: NCI-H23 lung
PC-3 prostate = system: PC-3 prostate
LOX IMVI melanoma = system: LOX IMVI melanoma
K-562 leukemia = system: K-562 leukemia
SN12C renal = system: SN12C renal
DU-145 prostate = system: DU-145 prostate
SR leukemia = system: SR leukemia
OVCAR-5 ovarian = system: OVCAR-5 ovarian
CCRF-CEM leukemia = system: CCRF-CEM leukemia
UACC-257 melanoma = system: UACC-257 melanoma
NCI-H522 lung = system: NCI-H522 lung
IGROV1 ovarian = system: IGROV1 ovarian
SF-295 CNS = system: SF-295 CNS
OVCAR-4 ovarian = system: OVCAR-4 ovarian
UO-31 renal = system: UO-31 renal
SF-539 CNS = system: SF-539 CNS
A549 NSCLC = system: A549 NSCLC
HT29 colon = system: HT29 colon
ACHN renal = system: ACHN renal
MCF7 breast = system: MCF7 breast
KM12 colon = system: KM12 colon
RPMI-8226 leukemia = system: RPMI-8226 leukemia
HCT-15 colon = system: HCT-15 colon
RXF 393 renal = system: RXF 393 renal
HOP-62 NSCLC = system: HOP-62 NSCLC
HCT-116 colon = system: HCT-116 colon
MDA-MB-231 breast = system: MDA-MB-231 breast
COLO 205 colon = system: COLO 205 colon
M14 melanoma = system: M14 melanoma
SW-620 colon = system: SW-620 colon
EKVX NSCLC = system: EKVX NSCLC
BT-549 breast = system: BT-549 breast
MOLT-4 leukemia = system: MOLT-4 leukemia
SK-OV-3 ovarian = system: SK-OV-3 ovarian
CAKI-1 renal = system: CAKI-1 renal
HOP-92 NSCLC = system: HOP-92 NSCLC
SK-MEL-5 melanoma = system: SK-MEL-5 melanoma
UACC-62 melanoma = system: UACC-62 melanoma
HL-60(TB) leukemia = system: HL-60(TB) leukemia
SNB-75 CNS = system: SNB-75 CNS
MDA-MB-435 = system: MDA-MB-435
MALME-3M melanoma = system: MALME-3M melanoma
NCI-H226 lung = system: NCI-H226 lung
786-0 renal = system: 786-0 renal
NCI/ADR-RES ovarian = system: NCI/ADR-RES ovarian
SNB-19 CNS = system: SNB-19 CNS
TK-10 renal = system: TK-10 renal
T-47D breast = system: T-47D breast
NCI-H460 lung = system: NCI-H460 lung
HCC-2998 colon = system: HCC-2998 colon
HS 578T breast = system: HS 578T breast
SK-MEL-2 melanoma = system: SK-MEL-2 melanoma
OVCAR-3 ovarian = system: OVCAR-3 ovarian
U251 CNS = system: U251 CNS
A498 renal = system: A498 renal

`Oc1cc(Cl)ccc1Cc1ccc(Cl)cc1O` was tested, and the GI50 (SF-268 CNS) was 9.44 µM, the TGI (SF-268 CNS) was 27.7 µM and the GI50 (OVCAR-8 ovarian) was 15.1 µM. It also gave a TGI (OVCAR-8 ovarian) of 48.8 µM, a GI50 (SK-MEL-28 melanoma) of 8.26 µM and a TGI (SK-MEL-28 melanoma) of 20.7 µM. The GI50 (NCI-H23 lung) was 3.21 µM, the TGI (NCI-H23 lung) was 12.6 µM and the GI50 (PC-3 prostate) was 6.23 µM. The TGI (PC-3 prostate) was 83 µM, the GI50 (LOX IMVI melanoma) was 5.84 µM and the TGI (LOX IMVI melanoma) was 18.2 µM. The GI50 (K-562 leukemia) was 5.69 µM, the TGI (K-562 leukemia) was greater than 100 µM and the GI50 (SN12C renal) was 7.92 µM. For the same molecule, the TGI (SN12C renal) was 20.6 µM, the GI50 (DU-145 prostate) was 10.4 µM and the TGI (DU-145 prostate) was 23.2 µM. For the same molecule, the GI50 (SR leukemia) was 10.5 µM, the TGI (SR leukemia) was greater than 100 µM and the GI50 (OVCAR-5 ovarian) was 15.1 µM. The TGI (OVCAR-5 ovarian) was 31.8 µM, the GI50 (CCRF-CEM leukemia) was 15.8 µM and the TGI (CCRF-CEM leukemia) was greater than 100 µM. It also gave a GI50 (UACC-257 melanoma) of 14.7 µM, a TGI (UACC-257 melanoma) of 36.9 µM and a GI50 (NCI-H522 lung) of 3.86 µM. For the same molecule, the TGI (NCI-H522 lung) was 15 µM, the GI50 (IGROV1 ovarian) was 12.5 µM and the TGI (IGROV1 ovarian) was 31.2 µM. It also gave a GI50 (SF-295 CNS) of 6.34 µM, a TGI (SF-295 CNS) of 24.6 µM and a GI50 (OVCAR-4 ovarian) of 6.6 µM. The TGI (OVCAR-4 ovarian) was 34.8 µM, the GI50 (UO-31 renal) was 4.89 µM and the TGI (UO-31 renal) was 20.1 µM. It also gave a GI50 (SF-539 CNS) of 11.4 µM, a TGI (SF-539 CNS) of 25.4 µM and a GI50 (A549 NSCLC) of 14.7 µM. The TGI (A549 NSCLC) was 41.1 µM, the GI50 (HT29 colon) was 17.5 µM and the TGI (HT29 colon) was 31.3 µM. It also gave a GI50 (ACHN renal) of 10 µM, a TGI (ACHN renal) of 31.2 µM and a GI50 (MCF7 breast) of 13.2 µM. For the same molecule, the TGI (MCF7 breast) was 27.9 µM, the GI50 (KM12 colon) was 14.8 µM and the TGI (KM12 colon) was 28.1 µM. For the same molecule, the GI50 (RPMI-8226 leukemia) was 6.01 µM, the TGI (RPMI-8226 leukemia) was greater than 100 µM and the GI50 (HCT-15 colon) was 8.09 µM. For the same molecule, the TGI (HCT-15 colon) was 20.3 µM, the GI50 (RXF 393 renal) was 12.8 µM and the TGI (RXF 393 renal) was 28.4 µM. For the same molecule, the GI50 (HOP-62 NSCLC) was 11.7 µM, the TGI (HOP-62 NSCLC) was 31.7 µM and the GI50 (HCT-116 colon) was 4.95 µM. The TGI (HCT-116 colon) was 17.1 µM, the GI50 (MDA-MB-231 breast) was 11.6 µM and the TGI (MDA-MB-231 breast) was 36.3 µM. The GI50 (COLO 205 colon) was 16.9 µM, the TGI (COLO 205 colon) was 30.6 µM and the GI50 (M14 melanoma) was 13.5 µM. The TGI (M14 melanoma) was 26.3 µM, the GI50 (SW-620 colon) was 9.73 µM and the TGI (SW-620 colon) was 21.4 µM. For the same molecule, the GI50 (EKVX NSCLC) was 5.56 µM, the TGI (EKVX NSCLC) was 36 µM and the GI50 (BT-549 breast) was 4.22 µM. The TGI (BT-549 breast) was 19.1 µM, the GI50 (MOLT-4 leukemia) was 9.24 µM and the TGI (MOLT-4 leukemia) was greater than 100 µM. For the same molecule, the GI50 (SK-OV-3 ovarian) was 20.6 µM, the TGI (SK-OV-3 ovarian) was 43.3 µM and the GI50 (CAKI-1 renal) was 18.2 µM. It also gave a TGI (CAKI-1 renal) of 43 µM, a GI50 (HOP-92 NSCLC) of 2.67 µM and a TGI (HOP-92 NSCLC) of 8.11 µM. The GI50 (SK-MEL-5 melanoma) was 4.48 µM, the TGI (SK-MEL-5 melanoma) was 15.8 µM and the GI50 (UACC-62 melanoma) was 4.9 µM. The TGI (UACC-62 melanoma) was 16.3 µM, the GI50 (HL-60(TB) leukemia) was 9.67 µM and the TGI (HL-60(TB) leukemia) was greater than 100 µM. For the same molecule, the GI50 (SNB-75 CNS) was 13.5 µM, the TGI (SNB-75 CNS) was 34.4 µM and the GI50 (MDA-MB-435) was 5.37 µM. The TGI (MDA-MB-435) was 24.5 µM, the GI50 (MALME-3M melanoma) was 4.32 µM and the TGI (MALME-3M melanoma) was 19.2 µM. For the same molecule, the GI50 (NCI-H226 lung) was 24.7 µM, the TGI (NCI-H226 lung) was 57.8 µM and the GI50 (786-0 renal) was 18.4 µM. For the same molecule, the TGI (786-0 renal) was 38 µM, the GI50 (NCI/ADR-RES ovarian) was 8.63 µM and the TGI (NCI/ADR-RES ovarian) was 25.4 µM. The GI50 (SNB-19 CNS) was 14.3 µM, the TGI (SNB-19 CNS) was 45.1 µM and the GI50 (TK-10 renal) was 17 µM. For the same molecule, the TGI (TK-10 renal) was 34.8 µM, the GI50 (T-47D breast) was 4.91 µM and the TGI (T-47D breast) was 29.3 µM. For the same molecule, the GI50 (NCI-H460 lung) was 7 µM, the TGI (NCI-H460 lung) was 19.4 µM and the GI50 (HCC-2998 colon) was 14.6 µM. It also gave a TGI (HCC-2998 colon) of 27.7 µM, a GI50 (HS 578T breast) of 7.2 µM and a TGI (HS 578T breast) of 32.8 µM. The GI50 (SK-MEL-2 melanoma) was 14.8 µM, the TGI (SK-MEL-2 melanoma) was 38.8 µM and the GI50 (OVCAR-3 ovarian) was 3.71 µM. For the same molecule, the TGI (OVCAR-3 ovarian) was 13.9 µM, the GI50 (U251 CNS) was 6.7 µM and the TGI (U251 CNS) was 21.7 µM. The GI50 (A498 renal) was 17.4 µM and the TGI (A498 renal) was 31.3 µM.
